We go through five molecules from publication PMC6329626 (British Journal of Pharmacology, 2018).

Data set [1] relates to HLM. The note with it: 25 μM sulfaphenazole; ref Lakehal et al., 2001; cited from earlier work.
In data set [2] the test system is HLM. The note with it: ref Towles et al., 2016; cited from earlier work.
Data set [3] concerns the target CYP3A4 (testosterone 6β-hydroxylation) in HLM (Homo sapiens, UniProt P08684). As to the kind of experiment: Inhibition by sulfaphenazole of testosterone hydroxylation in HLM. The class given is biochemical.
The next data set has as its target recombinant CYP3A7 (Homo sapiens, UniProt P24462). As to the kind of experiment: Inhibition by sulfaphenazole of CYP3A7 Supersomes. The note with it: testosterone 50 μM. The format is biochemical.
A further data set has as its system biliary epithelial cells. To be noted: ref Lakehal et al., 2001; cited from earlier work.
A further data set relates to HLM from 16 donors. The format is in vitro ADME, human. To be noted: for Pearson's r, FLX hydroxylation vs phenacetin O-deethylation: CYP1A2; for Pearson's r, FLX hydroxylation vs coumarin 7-hydroxylation: CYP2A6; for Pearson's r, FLX hydroxylation vs diclofenac 4′-hydroxylation: CYP2C9.
The subject of data set [4] is pooled HLM. Briefly: Enzyme kinetics of 5′-HM-FLX formation from flucloxacillin by pooled HLM. The format is in vitro ADME, human. To be noted: 0.5 mg·mL^−1 pooled HLM, 10 min, Michaelis–Menten fit.
The target of another data set is recombinant human CYP3A4 (Homo sapiens, UniProt P08684). Briefly: Enzyme kinetics of flucloxacillin hydroxylation by CYP3A4 Supersomes. To be noted: 100 nM CYP3A4 Supersomes, 10 min.
recombinant human CYP3A4, sequence (P08684 whole entry): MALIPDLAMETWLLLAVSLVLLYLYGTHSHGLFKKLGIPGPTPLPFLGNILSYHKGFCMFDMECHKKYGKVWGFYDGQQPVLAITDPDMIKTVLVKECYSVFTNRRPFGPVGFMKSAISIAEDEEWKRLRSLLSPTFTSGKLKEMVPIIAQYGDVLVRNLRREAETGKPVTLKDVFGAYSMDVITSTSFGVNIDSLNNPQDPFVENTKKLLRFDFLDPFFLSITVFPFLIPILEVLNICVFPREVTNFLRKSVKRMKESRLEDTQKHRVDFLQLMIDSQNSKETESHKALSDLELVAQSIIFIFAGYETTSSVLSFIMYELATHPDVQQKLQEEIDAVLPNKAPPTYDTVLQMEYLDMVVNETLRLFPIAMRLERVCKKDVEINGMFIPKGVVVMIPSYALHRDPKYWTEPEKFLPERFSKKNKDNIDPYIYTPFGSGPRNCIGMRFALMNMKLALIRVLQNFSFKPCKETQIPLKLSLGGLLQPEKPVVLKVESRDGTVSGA
The conditions of data set [5]: read-out: Average Cmax in patients; patients taking 1000 mg orally; cited from earlier work.
Data set [6] relates to CYP3A (flucloxacillin 5′-hydroxylation). Briefly: Inhibition of 5′-HM-FLX formation by pooled HLM by CYP-specific inhibitors. The format is biochemical, human. To be noted: human, pooled human liver microsomes, probe flucloxacillin (formation of 5′-HM-FLX), 10 and 100 μM. On the technique in general: Liver microsomes are vesicles of endoplasmic reticulum, rich in cytochrome P450 enzymes.

For data set [7], the system named is pooled HLM. The data set is described as above. The class given is biochemical, human. The note with it: 10 μM inhibitor; pooled HLM.
Substrate in data set [8]: Cc1onc(-c2c(F)cccc2Cl)c1C(=O)N[C@@H]1C(=O)N2[C@@H]1SC(C)(C)[C@@H]2C(=O)O
As to the kind of experiment: cells, lysate or membranes named. To be noted: other: 100 nM CYP3A7 Supersomes, 10 min; pH 7.4; 37.0 °C. The class given is in vitro ADME, human.

Where two headings read alike, the source gives them in different places.

CYP3A4 (testosterone 6β-hydroxylation) in HLM, sequence (P08684 whole entry): as above

For the molecule `Nc1ccc(S(=O)(=O)Nc2ccnn2-c2ccccc2)cc1` [sulfaphenazole], the “Inhibition of HLM-catalysed hydroxylation of flucloxacillin” value in the data set on HLM [1] was “no inhibition”. In addition, the “Inhibition of bioactivation of hydroxylapatinib by HLM” value with HLM [2] is recorded as “significantly inhibited”. For the same molecule, the “Inhibition of testosterone hydroxylation” value in data set [3] is “but not testosterone hydroxylation”. Moreover, at recombinant CYP3A7, the “Inhibition of 6β-hydroxylation of testosterone” value is “not affected”.

Regarding `Cc1onc(-c2c(F)cccc2Cl)c1C(=O)N[C@@H]1C(=O)N2[C@@H]1SC(C)(C)[C@@H]2C(=O)O` [flucloxacillin], in the data set with biliary epithelial cells, the “Cytotoxicity to isolated biliary epithelial cells” value is “without effect”. Moreover, in the data set on HLM from 16 donors (10 μM FLX), the “Pearson's r, FLX hydroxylation vs phenacetin O-deethylation” value turned out to be 0.04; the “Pearson's r, FLX hydroxylation vs coumarin 7-hydroxylation” value is 0.45; the “Pearson's r, FLX hydroxylation vs diclofenac 4′-hydroxylation” value came out at 0.78. In the data set on HLM from 16 donors (100 μM FLX), the “Pearson's r, FLX hydroxylation vs phenacetin O-deethylation” value amounted to 0.10; the “Pearson's r, FLX hydroxylation vs coumarin 7-hydroxylation” value is listed as 0.45; the “Pearson's r, FLX hydroxylation vs diclofenac 4′-hydroxylation” value is on record as 0.58. In addition, the “Pearson's r, FLX hydroxylation vs amodiaquine N-deethylation” value in the data set on HLM from 16 donors (CYP2C8, 10 μM FLX) worked out at 0.50. Besides, in the data set with HLM from 16 donors (CYP2C19, 10 μM FLX), the “Pearson's r, FLX hydroxylation vs mephenytoin 4′-hydroxylation” value is recorded as 0.45. Besides, in the data set on HLM from 16 donors (CYP3A4, 10 μM FLX), the “Pearson's r, FLX hydroxylation vs midazolam 1′-hydroxylation” value is given as 0.58 and the “Pearson's r, FLX hydroxylation vs testosterone 6β-hydroxylation” value was 0.69. Moreover, in the data set on pooled HLM [4], the “K M of 5′-HM-FLX formation” value turned out to be 284 ± 38 µM and the “Vmax of 5′-HM-FLX formation” value is recorded as 30 ± 2 pmol·min^−1·mg^−1 protein. Moreover, the “K M of 5′-HM-FLX formation” value on recombinant human CYP3A4 stood at 124 ± 15 µM. Besides, the Cmax (in general, the maximum level reached in the sampled fluid or tissue) in data set [5] is 100 µM.

As to `CC(=O)N1CCN(c2ccc(OCC3COC(Cn4ccnc4)(c4ccc(Cl)cc4Cl)O3)cc2)CC1` (stereo not shown) [ketoconazole], the inhibition (in general, how much of the control response was suppressed) at 1 μM in data set [6] stood at 50%.

For `COCCCC/C(=N\OCCN)c1ccc(C(F)(F)F)cc1` [fluvoxamine], the “Inhibition of 5′-HM-FLX formation” value in the data set with pooled HLM [7] is “did not show significant inhibition”.

B1: recombinant human CYP3A7 (Homo sapiens) (protein)
chain: MDLIPNLAVETWLLLAVSLILLYLYGTRTHGLFKKLGIPGPTPLPFLGNALSFRKGYWTFDMECYKKYRKVWGIYDCQQPMLAITDPDMIKTVLVKECYSVFTNRRPFGPVGFMKNAISIAEDEEWKRIRSLLSPTFTSGKLKEMVPIIAQYGDVLVRNLRREAETGKPVTLKHVFGAYSMDVITSTSFGVSIDSLNNPQDPFVENTKKLLRFNPLDPFVLSIKVFPFLTPILEALNITVFPRKVISFLTKSVKQIKEGRLKETQKHRVDFLQLMIDSQNSKDSETHKALSDLELMAQSIIFIFAGYETTSSVLSFIIYELATHPDVQQKVQKEIDTVLPNKAPPTYDTVLQLEYLDMVVNETLRLFPVAMRLERVCKKDVEINGMFIPKGVVVMIPSYVLHHDPKYWTEPEKFLPERFSKKNKDNIDPYIYTPFGSGPRNCIGMRFALVNMKLALVRVLQNFSFKPCKETQIPLKLRFGGLLLTEKPIVLKAESRDETVSGA
For B1, the kcat in data set [8] worked out at 193 ± 7 pmol·min^−1·nmol^−1 P450.
